Test results taken from US10800806B2, “Sterol derivatives and use thereof for treating diseases involving transformed astrocyte cells or for treating malignant haemopathies” (BETA INNOV, priority 2012, dated 2020).

Columns and labels:
C6 cells = assay: Anti-GBM activity in vitro on cultures of C6 cells (cell counting, protein assay, MTT test); type: cell-based, rat
Method: (§1) Plastic flat-bottomed 96-well culture plates (NUNC, USA) treated for cell culture (Sigma-Aldrich, ref. 114754) are used; 1500 cells are seeded per well in 200 μl of culture medium. At the time of treatment, 100 μl of pure culture medium, 100 μl of culture medium containing ethanol, or liposomes, or 100 μl of culture medium containing the active ingredients are added per well; the final volume of the culture medium, after treatment, is therefore 300 μl for all the wells.
The cultures are incubated in a Sanyo incubator (Japan, model MCO-19AlC-UV) at 37° C. and in an atmosphere with 5% CO2 and saturated in humidity. The cells are observed with an inverted microscope (Nikon Eclipse TS100, Japan) and the photographs are taken with a camera (DIGITAL camera with c-mount; LABOVER, France). The culture hood is a microbiological safety hood MSC (thermo SCIENTIFIC, model HERA SAFE KS12, France).
The type C6 cell line was obtained by Benda et al. (16) from rat brain tumours, induced by N-methylnitrosourea. This cell type is used as “in vitro” and “in vivo” model for evaluating anti-GBM potential. The lines originate from the former Strasbourg Neurochemistry Centre (U44 INSERM and UPR 416 CNRS).
The culture medium is made up of 70% Minimum Essential Medium (MEM; (Fischer Scientifique, ref. 61100) and 30% Hanks solution (SIGMA, ref. H 9269). The following are added to the culture medium: foetal calf serum (FCS; Fischer Scientifique, ref. 10108165) at a final concentration of 5% (v/v), an antibiotic solution of ciprofloxacin hydrochloride 5 μg/mL (EUROMEDEX, ref. UC5074) and a solution of Fungizone 2.5 μg/mL (INVITROGEN, ref. 15290-026). The doubling time of this cell type is 17 h. • GBM lines of human origin
The active ingredients are either dissolved in absolute ethanol (AnalaR, NORMAPUR, VWR, France) or in the form of a liposomal solution, such as 10 μl of the stock solutions diluted in 990 μl and then added to the culture wells (200 μl of culture medium) giving concentrations of 30.0, 15.0, 7.5 and 3.3 μM (final volume of culture medium per well BI-GBM: 300 μl).
(§2) When the active ingredients are in ethanolic solution, the culture medium contains […] ethanol (v/v).
A method of cell counting on photographs was used.
(§3) For example, in the case of the cultures in 96-well plates and as a function of the magnification of the microscope used (objectives×10 or ×20, oculars×10), a photograph taken represents a field of view with a diameter equal to 1/5 of the diameter of a well. Therefore the total number of cells in a well is equal to […] the number of cells per photograph. This technique was compared with a standard technique (trypsinization of the cell layer, centrifugation of the cells, suspension of the cells in physiological saline solution and counting with a THOMA cell) in the case of the C6 cells. The results obtained are identical for both methods.
(§4) The culture medium is withdrawn from each well and 50 μl of Laemmli buffer (0.1 ml of Tris, 0.8 ml of glycerol, 1.6 mL of 10% SDS, 8 ml q.s.f ultrapure water) is added per well.
In control wells, 10 μl of a solution of bovine serum albumin range (crystallized BSA, Sigma) is added; the range is from 0 to 20 μg per well. The wells are then supplemented with 40 μl of Laemmli buffer. Finally, 200 μl of solution of BCA reagent is added (Pierce, USA; BCA Protein Assay Kit; ThemoScientific, France).
The culture plates are incubated for 30 min at 37° C. The optical density for each well is read and quantified by a plate reader (BioRad, USA, iMark Microplate reader 12222) at 570 nm.
(§5) This test makes it possible to detect the cellular respiration, especially the mitochondrial respiration. The stock solution of tetrazolium salt MTT (3-(4,5-dimethylthiazol-2-yl)-2,5-diphenyl tetrazolium bromide, Sigma-Aldrich, USA, ref. M5655) is prepared with 10 mg of MIT/ml of PBS buffer (phosphate-buffered saline, SIGMA, ref. D 1408). […]

[1] = tested on: human glioblastoma lines (GBM, line U-87 MG); assay: Anti-GBM activity in vitro on cultures of human U87-MG cells, cell aggregates (CA); type: cell-based
Method: as §1
The human glioblastoma lines (GBM, line U-87 MG) and their culture medium (Eagle's Minimum Essential Medium or EMEM) were obtained from ATCC (USA, ref. ATCC-HTB-14). Culture of the cells is started and maintained according to the recommendations of the ATCC. These lines are commonly used “in vitro” and “in vivo” for testing anti-GBM potential. The doubling time of these lines is 16 h.
The active ingredients are either dissolved in absolute ethanol (AnalaR, NORMAPUR, VWR, France) or in the form of a liposomal solution, such as 10 μl of the stock solutions diluted in 990 μl and then added to the culture wells ([…] medium per well BI-GBM: 300 μl).
as §2
Briefly, the compounds to be tested, namely the compounds according to the invention (active ingredients) or 7β-OHCH—C3-ester (a derivative of 7beta-hydroxysterol esterified in position 3 with an oleate group, the synthesis of which is described by Rakotoarivelo et al. (18) and used as control), soya phosphatidylcholine (Sigma) as well as cholesteryl-3-sulphate (Sigma) are taken from their stock solutions prepared from dichloroethane in the case of the active ingredients and the 7β-OHCH—C3-ester, a chloroform:methanol mixture (9:1, v/v) in the case of phosphatidylcholine and chloroform in the case of cholesteryl-3-sulphate. The molar ratios are 1 M/0.1 M/0.25 M for phosphatidylcholine, cholesteryl-3-sulphate and the 7β-OHCH—C3-ester and the active ingredients respectively.
After evaporation, a solution of PBS saline, without Ca^2+ and Mg^2+, pH7.2 (BioRad) is added to the dry compound. The volume of buffer and the mass of the products are adjusted so that 20 or 10 μl of liposomes added to 90 μl of culture medium gives the desired final concentrations. The liposomes are formed by the extrusion technique with Liposofast (Sodexim, SA Muizon, France). The solution is passed through polycarbonate filtration membranes (100 nm) 41 times. The liposomes are sterilized by filtration on […] Millipore membranes.
as §3, §4
as §5, with “1408). This solution is added directly to the culture medium in each well; the final concentration of MTT is 25 μg/ml. The plate is then incubated at 37° C. for at least 1 h.” for “1408).”

Solubility in ethanol = type: physicochemical; settings: ethanolic form
[2] = tested on: CD133+ stem cells (U87-MG cultures); assay: Immunolabelling of the CD133+ stem cells with the A/B peroxidase system; type: cell-based, human; settings: for CD133+ cells, percentage relative to the controls: 80 μM in liposomal form; for destruction of the CD133+ stem cells: liposomal form
Method: The anti-CD133 (poly, Abnova), anti-GFAP (poly, Sigma), anti-NFL (mono, Santa Cruz) and anti-fibroblast (ERTR7, Santa Cruz) primary antibodies are diluted to 1/100 in the case of the first three antibodies and to 1/50 in the case of the last.
The secondary antibodies corresponding to recognition of the primary antibodies are anti-rabbit antibodies coupled to peroxidase (goat, Sigma), anti-mouse coupled to Dylight 488 (sheep, Sigma), anti-mouse coupled to Dylight 488 (sheep, Sigma) and anti-rat coupled to FITC (rabbit, Sigma). The dilutions are 1/4000, 1/1000, 1/4000 and 1/400 respectively.
The cells are permeabilized for 5 min with 0.1% Triton X-100 (Sigma) in PBS (Fisher Scientific). The nonspecific sites are blocked with 2% BSA (Sigma) in PBS. Incubations are carried out for 1 h at ambient temperature, 48 h at 4° C., 24 h at 4° C. and 1 h at ambient temperature for the anti-CD133, anti-GFAP, anti-NFL and anti-Fibroblast antibodies respectively. Incubation with the secondary antibodies is carried out for 1 h at ambient temperature. The CD133 positive cells are detected by the DAB/H2O2 system (Sigma), and observed with an optical microscope.
The immunolabelling is carried out as described above (section II, A).

GBMs (rat line C6) = settings: in vitro; cited from earlier work
[3] = tested on: immortalized (spontaneously transformed) rat astrocyte lines; settings: in vitro; cited from earlier work
[4] = tested on: Neuroblastoma (line SH-SY5Y, ATCC-CRL-2266); assay: Activity in vitro on human neuroblastomas; type: cell-based; settings: 22 μM once, concentrated liposomal form, 28 days of treatment
Method: They were obtained from the ATCC collection (Ref. ATCC-CRL-2266). The culture conditions are based on the recommendations in the ATCC information leaflet. • Chronic Myelomonocytic Leukaemia (CMML)
The neuroblastomas were treated with empty liposomes (controls) or with liposomes containing molecule 1.b or 2.b, 24 h after starting the culture. The cells are treated once with 22 μM of molecule 1.b or 22 μM of molecule 2.b. The liposomal form is concentrated.
For the control cells, the upper left hand photograph marked with the letter A was taken after 7 days of treatment; the lower left hand photograph marked with the letter B was taken after 28 days of treatment.
For the cells treated with the concentrated liposomal molecule 1.b, the photograph marked with the letter C (in the middle, at the top) was taken after 7 days of treatment and the photograph marked with the letter D (in the middle, at the bottom) after 28 days of treatment. For the cells treated with the concentrated liposomal molecule 2.b, the upper right hand photograph marked with the letter E was taken after 7 days of treatment.

For CC(C)CCCC(C)C1CCC2C3C(OC(=O)OC(C)(C)C)C=C4CC(OC(=O)C(C)NC(=O)CNC(=O)OCc5ccccc5)CCC4(C)C3CCC12C (centres unmarked) [Molecule 1.a, 7-((tert-butoxycarbonyl)oxy)-10,13-dimethyl-17-(6-methylheptan-2-yl)-2,3,4,7,8,9,10,11,12,13,14,15,16,17-tetradecahydro-1H-cyclopenta[a]phenanthren-3-yl 2-(2-(((benzyloxy)carbonyl)amino)acetamido)propanoate], the “increase of the MTT/cell ratio relative to the control cultures” value (C6 cells; 15 μM, 19 days of treatment) was 20%, the “reduction of the number of cells, the level of proteins and the MTT assay” value (C6 cells; 15 μM, ethanolic form, 14 days of treatment) was 30% and the “reduction of the number of cells, the level of proteins and the MTT assay” value (C6 cells; 15 μM, ethanolic form, 19 days of treatment) was ≥ 97%. The dose-dependence (C6 cells; 7.5 and 3.3 μM, 19 days of treatment) was “dose-dependence is also observed”, the Live residual cells (C6 cells; 15 μm, ethanol 3%) was 3% and the cytotoxicity (C6 cells; ethanolic form, after 19 days of treatment) was “cytotoxic”.
With CCCCCCCC/C=C\CCCCCCCC(=O)O[C@H]1CC[C@@]2(C)C(=C[C@H](O)[C@H]3[C@@H]4CC[C@H]([C@H](C)CCCC(C)C)[C@@]4(C)CC[C@@H]32)C1 [7β-OHCH—C3-ester] the “action on the GBMs (CA)” value ([1]; ethanolic form) was “does not act”, the anti-tumour activity ([1]; ethanolic form) was “no anti-tumour activity is observed” and the “efficacy on increasing the dose” value ([1]; liposomal form) was “not better, or even decreases”. The “reduction of the level of proteins relative to the untreated control cells” value ([1]; liposomal form) was 85%, the MTT/cell ratio ([1]; liposomal form, 80 μM) was “does not vary” and the “action on the GBMs (CA)” value ([1]; liposomal form, 80 μM) was “only acts in liposomal form”. The “cell multiplication after replacing the medium with fresh drug-free medium” value ([1]; liposomal form, medium replaced on the 13th day of treatment) was “cell multiplication is observed”, the “increase in the MTT test after removal of the drug” value ([1]; medium replaced on the 13th day, two days later) was 40% and the “solubility in ethanol (concentration above which no longer soluble)” value (Solubility in ethanol) was ≤ 30 µM. For the same molecule, the “CD133+ cells, percentage relative to the controls” value ([2]; 4 days of treatment) was 100%, the “CD133+ cells, percentage relative to the controls” value ([2]; 22 days of treatment) was 50% and the “destruction of the CD133+ stem cells” value [2] was “This is not the case”. The “destruction of the CD133+ stem cells” value ([2]; listed as 7beta-OHCH-C3-ester) was “does not completely destroy the CD 133+”.
In the case of CC(C)CCC[C@@H](C)[C@H]1CC[C@H]2[C@@H]3[C@@H](O)C=C4C[C@@H](O)CC[C@]4(C)[C@H]3CC[C@]12C [7β-OHCH, 7β-Hydroxycholesterol], the cytotoxicity (GBMs (rat line C6)) is listed as “remarkable cytotoxicity”, the cytotoxicity [3] is listed as “remarkable cytotoxicity” and the “death of GBMs” value ([1]; control experiments at the very low levels formed from molecule 2.b) is listed as “do not induce any death of GBMs”.
In the case of CC(=O)OC1C=C2CC(OC(=O)C(C)NC(=O)CNC(=O)OCc3ccccc3)CCC2(C)C2CCC3(C)C(C(C)CCCC(C)C)CCC3C12 (centres unmarked) [Molecule 1.b, 7-acetoxy-10,13-dimethyl-17-(6-methylheptan-2-yl)-2,3,4,7,8,9,10,11,12,13,14,15,16,17-tetradecahydro-1H-cyclopenta[a]phenanthren-3-yl 2-(2-(((benzyloxy)carbonyl)amino)acetamido)propanoate], the “toxicity to neuroblastoma cells compared to the control cells” value [4] is reported as “toxic to almost all the cells”.
